What is called solubility is how much of the substance goes into solution per volume. One may read the IC50 as the concentration that gives 50% inhibition. As a reminder, the CC50 is the concentration that lowers cell viability or growth by half.

Data set [1] in a line: Initial solubility assessment in solvents useful in making vaginal devices. The format is physicochemical. From the text: Initial solubility assessments were made of Compounds 28A, 23 and 5L to evaluate compatibility in various solvents useful in making vaginal devices.
Data set [2] is described as follows: Competition slurry experiment, relative thermodynamic stability of forms 1 and 2. The format is physicochemical. The following applies: slurry in 2-propanol and in MTBE, seeded with both forms, 1 week; PXRD and DSC. As to the method:
To assess the relative thermodynamic stability of forms 1 and 2, a competition slurry experiment was performed. In this experiment, the as received amorphous material was slurried in one vial containing 2-propanol and another containing MTBE. Seeds of both form 1 and form 2 were added to both vials and stirring continued for 1 week. The solid material was filtered from each vial and analyzed with PXRD and DSC.

Data set [3] in a line: Thermogravimetric analysis (TGA), thermal stability. The format is physicochemical. Here is the method: Thermogravimetric analysis (TGA) was conducted with a TGA Q500 from TA instruments. A typical experiment involved heating the material in a platinum pan under a nitrogen purge from 25° C. to 350° C. at 10° C. per minute. Data was analyzed using the Universal using the Universal Analysis software program from TA Instruments.
Thermogravimetric analysis (TGA) was performed on each form to evaluate the thermal stability and presence of any volatiles in the sample (FIG. 3). The onset of thermal degradation is estimated using the derivative of weigh loss curve and was measured as 276° C. and 270° C. for forms 1 and 2 respectively.

The subject of another data set is HIV-1BaL. Kind of data set: microbe, parasite or virus in culture. The format is cell-based. Conditions: Human immunodeficiency virus 1, TZM-bl, read-out: Inhibition of HIV Infection (TZM-bL cells using luciferase reporter) IC50-RS.
The nature of data set [4]: Compound toxicity, MTT dye reduction. The format is cell-based. Conditions: human, TZM-bL cells, mean ± D (n independent experiments), read-out: Cytotoxicity CC50 (TZM-bL). As to the method:
Determination of compound toxicity. The viability of cells (TZM-bI) and following treatment with the compound was determined by the principle of MTT dye reduction (see references cited in Fletcher et. al.). All data are expressed as the percentage of viability for compound-treated wells compared to untreated cell control wells, and the 50% cytotoxic concentration (CC50) is defined as the concentration of the drug at which the cell/tissue viability was reduced to 50% of the drug-free control value.
In general terms: Formazan colour is commonly taken as a measure of viable cells.

Where a name gives a salt, the structure may show the parent alone.

With `CCC[C@@H](c1ccc(C(F)(F)F)cc1)N1CCN(C2(C)CCN(C(=O)c3c(C)ncnc3C)CC2)C[C@@H]1C` [Compound 28A], the “Solubility (percent in parentheses)” value in data set [1] (PEG 400, 1.12 g/cm^3) is ≥ 3.4%; in data set [1] (PG (propyleneglycol), 1.038 g/cm^3), ≥ 3.6%. Moreover, the solubility is ≥ 39 mg/mL in data set [1] (organic solvent or mixture, PEG 400); ≥ 38.4 mg/mL in data set [1] (organic solvent or mixture, PG (propyleneglycol)); ≥ 11.4 mg/mL in data set [1] (pH 4.4, aqueous buffer, pH 4.4 citrate buffer); < 0.33 mg/mL in data set [1] (pH 7.5, aqueous buffer, pH 7.5 phosphate buffer); ≥ 3.85 mg/mL in data set [1] (water, DI H20).

Consider `CO/N=C(\c1ccc(Br)cc1)C1CCN(C2(C)CCN(C(=O)c3c(C)ncnc3C)CC2)CC1` [form 1], for which the “relative thermodynamic stability of forms 1 and 2” value in data set [2] is reported as “more thermodynamically stable form”. For the same molecule, the “onset of thermal degradation” value in data set [3] was 276 °C.

In the case of `CO/N=C(\c1ccc(Br)cc1)C1CCN(C2(C)CCN(C(=O)c3c(C)ncnc3C)CC2)CC1` [Compound 5L Tartrate], in the data set on HIV-1BaL, the half-maximal inhibitory concentration (IC50) came to 0.119 ± 0.0924 µM. The CC50 in data set [4] came to 476 ± 117 µM.

The values above are taken from US20110059154A1, “CCR5 ANTAGONISTS AS PROPHYLACTICS FOR PREVENTING HIV INFECTION AND METHODS OF INHIBITING TRANSMISSION OF SAME” (priority 2008, published 2011).
